Source: US12629345B2, “Methods, compositions, and devices for drug / live cell microarrays” (Pathak Holdings LLC, priority 2013, dated 2026)
“Also recorded” adds a separate entry of the source. Where a name gives a salt, the structure may show the parent alone. Blank lines part the entries; values can stand above or below the compound they belong to.

What was measured:
Assay type in all cases: physicochemical
[1] = Bupivacaine base release from PLGA microimplants formed with oscillating needle in bovine pericardium; conditions: PDLG 5002 in DMSO infused by oscillating needle, PBS 37 degree C.
Experimental: Oscillating needle such as tattoo needle may be used to create cavities in the tissue or skin. A commercial tattoo machine as described in the related application (U.S. Pat. No. 9,072,678, cited herein for reference only) is used. The 500-1000 micron size tattoo needle is used and the oscillation frequency was 10 to 12000 oscillations per minute. About 1 square centimeter area was treated with the tattoo needle for 1 minute. The pores created by the tattoo machine repeated needle insertion were used to fill the injectable composition such PLGA solutions with the drug as described before. Alternatively, polymer solution is first applied on the tissue surface to form a solution layer and then the tattoo needle is used to create holes through the solution. The needle goes in and out of the tissue surface and carries the solution with it inside the cavity created. The deposited solution inside the cavity is precipitated by the tissue fluids and the precipitated polymer releases the drug in a sustained manner. Additional information about tattoo based methods can be found on related applications cited herein for reference only. […] The concentration of bupivacaine in the eluted samples is monitored using UV spectrophotometer. […]

[2] = Bupivacaine hydrochloride release from in situ PLGA implant with and without magnesium carbonate filler; conditions: FIG. 21B
Experimental: 100.2 mg PDLG 5002 polymer is dissolved in 1.0 ml DMSO. 10 microliters of methylene blue stock solution (10 mg methylene blue in 2 ml DMSO) is added to the polymer solution as a colorant. Infusion solutions are prepared using the following method: 15.2 mg bupivacaine hydrochloride and 0.50 ml polymer solution are mixed until drug is completely dissolved. 50 mg magnesium carbonate powder (fine powder sieved to collect fraction below 300 microns in size) is added as a biocompatible and biodegradable filler in the drug solution and the mixture is vigorously vortexed for 5 minutes. The magnesium carbonate suspension is infused/tattooed using an oscillating needle in 1 cm square area of sheep skin tissue. Excess solution from the tattooed surface is wiped off. The light blue tattoo with magnesium particles is clearly seen the by unaided naked eye.
Similarly, a polymer solution without magnesium carbonate is prepared and infused/tattooed in the sheep skin tissue as above. The infused tissue sample is cut and used in controlled release experiment.
The cut samples are placed in 3 mL of PBS (pH 7.4). The drug eluted PBS is collected at several time points. Fresh PBS is added to replace the eluted PBS solution. The collected PBS is analyzed using a UV spectrophotometer to determine the drug concentration.

[3] = Rifampin release from encapsulated microspheres in microimplant array in sheep skin tissue; conditions: PLGA microspheres in glycerol, 33 MP array, PBS 37 degree C., FIG. 14
Experimental: Rifampin containing red/yellow microspheres are prepared using spray drying method or prepared according to Example 3. Microspheres are prepared using PLGA polymer (PDLG 5002 from Purac) polymer with 20 percent rifampin loading relative to the polymer plus drug weight. Control PLGA microspheres without rifampin are prepared under identical spry drying conditions. 4.9 mg of rifampin encapsulated microspheres are suspended in 0.25 ml glycerol. One/two drops of the suspension are added on the 2 by 2 cm glutaraldehyde fixed sheep tissue. The 33 MP microarray needles are pressed on the tissue via rifampin suspension to create 3 by 3 micro array cavities and infuse the cavities with the rifampin microspheres. The procedure is repeated 9 times on the same tissue at different locations to create 135 micro cavities loaded with rifampin microspheres. The excess suspension is wiped of using tissue paper. No loosely adherent microspheres in the tissue are noticed. The glycerol in the suspension is dissipated in the tissue leaving behind the microspheres in the cavities. […] The rifampin treated tissue and control tissue are incubated at 37 degree C. in 3 ml PBS and rifampin in treated and control samples is monitored at various time points. Rifampin concentration in the eluted samples is analyzed using UV-VIS spectrophotometer (wavelength 474 nm).

sustained release of bupivacaine base from in situ formed implant ([1]; FIG. 13): several days
SMILES: CCCCN1CCCCC1C(=O)Nc1c(C)cccc1C (centres unmarked) [bupivacaine base, bupivacaine]
sustained release of bupivacaine base from in situ formed implant ([1]; FIG. 13, listed as bupivacaine): released in a sustained manner; also recorded: few days

duration of release of bupivacaine hydrochloride ([2]; PLGA array implant without magnesium carbonate): one to two days
SMILES: CCCCN1CCCCC1C(=O)Nc1c(C)cccc1C (centres unmarked) [bupivacaine hydrochloride]
duration of release of bupivacaine hydrochloride ([2]; PLGA array implant with magnesium carbonate filler, hydrochloride): several days; also recorded: much longer sustained release

release of rifampin from microspheres in microimplant array [3]: sustained release
SMILES: CO[C@H]1/C=C/O[C@@]2(C)Oc3c(C)c(O)c4c(O)c(c(/C=N/N5CCN(C)CC5)c(O)c4c3C2=O)NC(=O)/C(C)=C\C=C\[C@H](C)[C@H](O)[C@@H](C)[C@@H](O)[C@@H](C)[C@H](OC(C)=O)[C@@H]1C [rifampin]
